Experimental data as given in patent US6538005B2, “Phenanthridine-N-oxides with PDE-IV inhibiting activity” (ALTANA Pharma AG, priority 1999, dated 2003).

How the values were obtained:
[1] = system: PDE4; assay: Inhibition of PDE4 activity (method of Bauer and Schwabe, adapted to microtiter plates); format: biochemical; details: inhibitory concentration as −log IC50 (mol/l)
Source text: The activity test can be carried out, for example, according to the method of Bauer and Schwabe. For this, the method is adapted to microfiter plates (Naunyn-Schmiedeberg's Arch. Pharmacol. 1980, 311, 193-198). The PDE reaction takes place in the first step here. In a second step, the resulting 5′-nucleotide is cleaved by a 5′-nucleotidase of the snake venom of Crotalus atrox to the uncharged nucleoside. In the third step, the nucleoside is separated from the remaining charged substrate on ion-exchange columns. The columns are eluted directly into minivials, into which 2 ml of scintillator fluid are additionally added for counting, using 2 ml of 30 mM ammonium formate (pH 6.0).
The inhibitory values determined for the compounds according to the invention [inhibitory concentration as −log IC50 (mol/l)] follow from the following Table A, in which the numbers of the compounds correspond to the numbers of the examples.

melting point: 229 to 230 °C
SMILES: COc1ccc(NC(=O)c2cccc(C3=[N+]([O-])C4CCCCC4c4cc(OC)c(OC)cc43)c2)cc1 (single isomer, unassigned; (-)) [Compound 1, (−)-cis-8,9-Dimethoxy-6-[3-(4-methoxyphenylamido)phenyl]-1,2,3,4,4a,10b-hexahydrophenanthridine-5-N-oxide]
−log IC50 [1]: 6.73 mol/l
